Assay results reported in patent publication US11371061B2, “Compositions and methods for improving viral vector efficiency” (GENETHON, priority 2015, dated 2022).
Where no end group is shown, it is not given here.

How the values were obtained:
[1] = tested on: HCT116 cells; format: cell-based, human
[2] = tested on: VSV-G-LV particles

YGRKKRRQRRR GG TNVFNATFEIWHDGEFGTINNFRLGRLPSV (YGRKKRRQRRRGGTNVFNATFEIWHDGEFGTINNFRLGRLPSV; Synthetic TB1 267-296) [Tat-Bec(267-296)]
dose capable to promote optimal lentiviral transduction [1]: ≥ 1 µM

KLALKLALKALKAALKA G TNVFNATFEIWHDGEFGT (KLALKLALKALKAALKAGTNVFNATFEIWHDGEFGT; Synthetic MAP-B1) [MAP-Beclin1]
capacity to promote lentiviral transduction [1]: as efficient as TB1

KKALLHAALAHLLALAHHLLALLKKA-NH2 [Vectofusin-1]
aggregation of viral particles (pull-down) [2]: aggregation of viral particles, like it is the case for Vectofusin-1

YGRKKRRQRRR GG INCFTATFEIWVEGPLGV (YGRKKRRQRRRGGINCFTATFEIWVEGPLGV; Synthetic TAT+ GG + Beclin2) [Tat-Bec2WT]
effect on lentiviral transduction at 100 nM [1]: three-folds | lentiviral transduction at 100 nM [1]: 30% | optimal dose to promote lentiviral transduction [1]: 500 nM

TNVFNATFEIWHDGEFGT (Synthetic modified beclin-1 267-284) [the 267-284 modified beclin1 domain, reference compound]
capacity to promote lentiviral transduction [1]: neither Tat nor Bec peptides are capable to promote lentiviral transduction

YGRKKRRQRRR GG TNVFNATFHIWHSGQFGTINNFRLGRLPSV (YGRKKRRQRRRGGTNVFNATFHIWHSGQFGTINNFRLGRLPSV; Synthetic TB WT 267-296) [Tat-Bec(267-296)WT]
capacity to promote lentiviral transduction at 2.5 μM [1]: promoting the lentiviral transduction but less efficiently than the Tat-Bec(267-296) peptide

YGRKKRRQRRR TNVFNATFEIWHDGEFGTINNFRLGRLPSV (YGRKKRRQRRRTNVFNATFEIWHDGEFGTINNFRLGRLPSV; Synthetic modified Tat-Beclin-1 + beclin-1 285-296) [Tat-Bec(267-296)dGG]
increase of the level of viral transduction [1]: nearly five folds

YGRKKRRQRRR (Synthetic Tat (47-57)) [the Tat transduction domain, reference compound]
capacity to promote lentiviral transduction [1]: neither Tat nor Bec peptides are capable to promote lentiviral transduction

YGRKKRRQRRR GG FEIWHDGEFGTINNFRLGRLPSVPV (YGRKKRRQRRRGGFEIWHDGEFGTINNFRLGRLPSVPV; Synthetic TB1 274-298) [Tat-Bec(274-298)]
capacity to promote lentiviral transduction at 2.5 μM [1]: most of the derivatives are a lot more efficient than TB1, except for Tat-Bec(274-298)

YGRKKRRQRRR GG TNVFNATFHIWHSGQFGT (YGRKKRRQRRRGGTNVFNATFHIWHSGQFGT; Synthetic TB WT) [Tat-BecWT]
capacity to promote lentiviral transduction at 2.5 μM [1]: capable to promote lentiviral transduction as efficiently as TB1 | capacity to promote lentiviral transduction at 5 μM [1]: no longer active | effect on lentiviral transduction at 100 nM [1]: no effect | optimal dose to promote lentiviral transduction [1]: 1000 nM

YGRKKRRQRRR GG VENQMRYAQTQLDKLKKTNVFNATFEIWHDGEF (YGRKKRRQRRRGGVENQMRYAQTQLDKLKKTNVFNATFEIWHDGEF; Synthetic TB1 250-282) [Tat-Bec(250-282)]
capacity to promote lentiviral transduction at 2.5 μM [1]: most performant peptide at a low dose
